In patent EP0620225B1, “Cephalosporin derivatives” (Basilea Pharmaceutica AG, priority 1993, dated 1994):
Values after ≈ are worked out from the molar mass of the structure shown. One block for each compound: values may come before it.

What was measured:
[1] = system: Acinetobacter sp.51-156; assay: Antibacterial spectrum (MIC), agar dilution; assay type: cell-based; conditions: SP.51156, read-out: MIC
Protocol: (§1) In vitro activity was determined by minimum inhibitory concentration in a microorganism spectum by the agar dilution method in Mueller Hinton agar.

[2] = system: C.freundii 43; assay: Antibacterial spectrum (MIC), agar dilution; assay type: cell-based; conditions: Citrobacter freundii, read-out: MIC
Protocol: as §1

[3] = system: C.freundii 902; assay: Antibacterial spectrum (MIC), agar dilution; assay type: cell-based; conditions: Citrobacter freundii, read-out: MIC
Protocol: as §1

[4] = system: E.cloacae 908R; assay: Antibacterial spectrum (MIC), agar dilution; assay type: cell-based; conditions: Enterobacter cloacae, read-out: MIC
Protocol: as §1

[5] = system: E.cloacae 908SSi; assay: Antibacterial spectrum (MIC), agar dilution; assay type: cell-based; conditions: Enterobacter cloacae, read-out: MIC
Protocol: as §1

[6] = system: E.coli 25922; assay: Antibacterial spectrum (MIC), agar dilution; assay type: cell-based; conditions: Escherichia coli, read-out: MIC
Protocol: as §1

[7] = system: E.faecalis 6; assay: Antibacterial spectrum (MIC), agar dilution; assay type: cell-based; conditions: Enterococcus faecalis, read-out: MIC
Protocol: as §1

[8] = system: H.influenzae 1; assay: Antibacterial spectrum (MIC), agar dilution; assay type: cell-based; conditions: Haemophilus influenzae, read-out: MIC
Protocol: as §1

[9] = system: K.pneumoniae 418; assay: Antibacterial spectrum (MIC), agar dilution; assay type: cell-based; conditions: Klebsiella pneumoniae, read-out: MIC
Protocol: as §1

[10] = system: M.catarrhalis RA21; assay: Antibacterial spectrum (MIC), agar dilution; assay type: cell-based; conditions: Moraxella catarrhalis, read-out: MIC
Protocol: as §1

[11] = system: M.morganii 6H-137; assay: Antibacterial spectrum (MIC), agar dilution; assay type: cell-based; conditions: Morganella morganii, 6H137, read-out: MIC
Protocol: as §1

[12] = system: N.meningitidis 69480; assay: Antibacterial spectrum (MIC), agar dilution; assay type: cell-based; conditions: Neisseria meningitidis, read-out: MIC
Protocol: as §1

[13] = system: P.aeruginosa 27853; assay: Antibacterial spectrum (MIC), agar dilution; assay type: cell-based; conditions: Pseudomonas aeruginosa, read-out: MIC
Protocol: as §1

[14] = system: P.mirabilis 2117; assay: Antibacterial spectrum (MIC), agar dilution; assay type: cell-based; conditions: Proteus mirabilis, read-out: MIC
Protocol: as §1

[15] = system: P.vulgaris 1028; assay: Antibacterial spectrum (MIC), agar dilution; assay type: cell-based; conditions: Proteus vulgaris, read-out: MIC
Protocol: as §1

[16] = system: S.agalactiae QK44; assay: Antibacterial spectrum (MIC), agar dilution; assay type: cell-based; conditions: Streptococcus agalactiae, read-out: MIC
Protocol: as §1

[17] = system: S.aureus 6538; assay: Antibacterial spectrum (MIC), agar dilution; assay type: cell-based; conditions: Staphylococcus aureus, read-out: MIC
Protocol: as §1

[18] = system: S.aureus 734 MRSA; assay: Antibacterial spectrum (MIC), agar dilution; assay type: cell-based; conditions: Staphylococcus aureus, read-out: MIC
Protocol: as §1

[19] = system: S.marcescens 69438; assay: Antibacterial spectrum (MIC), agar dilution; assay type: cell-based; conditions: Serratia marcescens, read-out: MIC
Protocol: as §1

[20] = system: S.pneumoniae Q19; assay: Antibacterial spectrum (MIC), agar dilution; assay type: cell-based; conditions: Streptococcus pneumoniae, read-out: MIC
Protocol: as §1

[21] = system: S.pyogenes B15; assay: Antibacterial spectrum (MIC), agar dilution; assay type: cell-based; conditions: Streptococcus pyogenes, read-out: MIC
Protocol: as §1

[22] = system: S.viridans group 016; assay: Antibacterial spectrum (MIC), agar dilution; assay type: cell-based; conditions: Streptococcus viridans, read-out: MIC
Protocol: as §1

[23] = system: X.maltophilia 1AC739; assay: Antibacterial spectrum (MIC), agar dilution; assay type: cell-based; conditions: Stenotrophomonas maltophilia, read-out: MIC
Protocol: as §1

[24] = system: S.aureus MSSA; assay: In vitro activity against selected species (MIC50, MIC90, range); assay type: cell-based; conditions: Staphylococcus aureus, medium MHB (Mueller Hinton Broth); for MIC: MIC range
[25] = system: S.pneumoniae PEN-R; assay: as above; assay type: cell-based; conditions: Streptococcus pneumoniae; for MIC: MIC range
[26] = system: S.viridans group; assay: as above; assay type: cell-based; conditions: Streptococcus viridans
[27] = system: E.faecalis; assay: as above; assay type: cell-based; conditions: Enterococcus faecalis, medium MHA; for MIC: MIC range
Protocol: as §1

[28] = system: S.aureus MRSA; assay: as above; assay type: cell-based; conditions: Staphylococcus aureus, medium MHA (Mueller Hinton Agar) +NaCl; for MIC: MIC range
Protocol: as §1

[29] = system: E.faecium; assay: In vitro activity against selected species (MIC50, range); assay type: cell-based; conditions: Enterococcus faecium, medium MHA; for MIC: MIC range
Protocol: as §1

[30] = system: M.catarrhalis; assay: In vitro activity against selected species (MIC50, MIC90, range); assay type: cell-based; conditions: Moraxella catarrhalis, medium IsoB
[31] = system: Escherichia coli 25922; assay: Efficacy against systemic infections (septicemia) in mice; assay type: in vivo; conditions: 96 h, survival day 4
Protocol: (§2) Septicemia was induced in outbred Swiss albino mice (Jbm MoRo [specific pathogen free]; weight 16 to 20 g, Biomedical Research Laboratories, Füllinsdorf, Switzerland). Mice were infected by intraperitoneal injection of diluted overnight cultures of the test organisms. Bacterial challenge doses were 4-10 times the number of organisms required to kill 50% of untreated animals within 48 h. The test compounds were administered p.o. or s.c. 1 and 3 h after the bacterial challenge. To treat the infection with Pseudomonas aeruginosa BA an additional dose was given 5 h after challenge. Control and treatment groups at each dose were composed of five mice each. The 50% effective dose (ED50, in milligrams per kilogram) was calculated by probit analysis as described by Finney (Finney, D.J. 1978, Statistical method in biological assay, 3rd ed. Charles Griffin & Co., Ltd., London), from the survival rates on day 4 after infection.

[32] = system: S.aureus Smith; assay: as above; assay type: in vivo; conditions: Staphylococcus aureus, 96 h, sc 1 and 3 h after challenge, survival day 4
Protocol: as §2

[33] = system: E.faecalis; assay: In vitro activity against selected species (MIC50, MIC90, range); assay type: cell-based; conditions: Enterococcus faecalis, medium IsoB
[34] = system: L.monocytogenes BK23; assay: Antibacterial spectrum (MIC), agar dilution; assay type: cell-based; conditions: Listeria monocytogenes, read-out: MIC
Protocol: as §1

[35] = medium IsoB (Isosensitest Broth)
[36] = Escherichia coli, E.coli 25922, sc 1 and 3 h after challenge

MIC [1]: 16 µg/mL (≈ 31.7 µM)
MIC [2]: 2 µg/mL (≈ 3.96 µM)
MIC [3]: ≤ 0.06 µg/mL
MIC [4]: 8 µg/mL (≈ 15.9 µM)
MIC [5]: 0.12 µg/mL (≈ 0.238 µM)
MIC [6]: ≤ 0.06 µg/mL
MIC [7]: 1 µg/mL (≈ 1.98 µM)
MIC [8]: 0.25 µg/mL (≈ 0.495 µM)
MIC [9]: ≤ 0.06 µg/mL
MIC [10]: 8 µg/mL (≈ 15.9 µM)
MIC [11]: ≤ 0.06 µg/mL
MIC [12]: ≤ 0.06 µg/mL
MIC [13]: 8 µg/mL (≈ 15.9 µM)
MIC [14]: ≤ 0.06 µg/mL
MIC [15]: 1 µg/mL (≈ 1.98 µM)
MIC [16]: 0.25 µg/mL (≈ 0.495 µM)
MIC [17]: 0.5 µg/mL (≈ 0.991 µM)
MIC [18]: 16 µg/mL (≈ 31.7 µM)
MIC [19]: 0.5 µg/mL (≈ 0.991 µM)
MIC [20]: ≤ 0.06 µg/mL
MIC [21]: ≤ 0.06 µg/mL
MIC [22]: 1 µg/mL (≈ 1.98 µM)
MIC [23]: > 32 µg/mL
MIC [24]: 0.5 to 1 µg/mL (≈ 0.991 to 1.98 µM)
MIC50 [24]: 1 µg/mL (≈ 1.98 µM)
MIC90 [24]: 1 µg/mL (≈ 1.98 µM)
MIC [25, 35]: 0.12 to 0.5 µg/mL (≈ 0.238 to 0.991 µM)
MIC ([25]; medium IsoB + 20% serum): 0.12 to 0.5 µg/mL
MIC50 [25, 35]: 0.25 µg/mL (≈ 0.495 µM)
MIC90 [25, 35]: 0.5 µg/mL (≈ 0.991 µM)
MIC50 ([25]; medium IsoB + 20% serum): 0.5 µg/mL
MIC50 [26]: 2 µg/mL (≈ 3.96 µM)
MIC90 [26]: 2 µg/mL (≈ 3.96 µM)
MIC ([26]; MIC range): 0.12 to 8 µg/mL (≈ 0.238 to 15.9 µM)
MIC [27]: 1 to 2 µg/mL (≈ 1.98 to 3.96 µM)
MIC50 [27]: 1 µg/mL (≈ 1.98 µM)
MIC90 [27]: 2 µg/mL (≈ 3.96 µM)
MIC [28]: 16 to 32 µg/mL (≈ 31.7 to 63.4 µM)
MIC50 [28]: 16 µg/mL (≈ 31.7 µM)
MIC90 [28]: 16 µg/mL (≈ 31.7 µM)
MIC [29]: 1 to 32 µg/mL (≈ 1.98 to 63.4 µM)
MIC50 [29]: 4 µg/mL (≈ 7.93 µM)
MIC ([30]; MIC range): 1 to 32 µg/mL (≈ 1.98 to 63.4 µM)
MIC50 [30]: 4 µg/mL (≈ 7.93 µM)
MIC90 [30]: 16 µg/mL (≈ 31.7 µM)
MIC ([33]; MIC range): 0.25 to 2 µg/mL (≈ 0.495 to 3.96 µM)
MIC50 [33]: 1 µg/mL (≈ 1.98 µM)
MIC90 [33]: 2 µg/mL (≈ 3.96 µM)
SMILES: Nc1nc(/C(=N/O)C(=O)N[C@@H]2C(=O)N3C(C(=O)O)=C(/C=C4\CCN(C5CC5)C4=O)CS[C@H]23)cs1 [D, [6R-[3(E),6α,7β(Z)]]-7-[[(2-Amino-4-thiazolyl)(hydroxyimino)-acetyl]amino] -3-[[1-cyclopropyl-2-oxo-3-pyrrolidinylidene]-methyl)-8-oxo-5-thia-1-azabicyclo[4.2.0]-oct-2-ene-2-carboxylic acid]
ED50 ([31]; Escherichia coli 25922, po (orally) 1 and 3 h after challenge): 3 mg/kg
ED50 [31, 36]: ≤ 0.1 mg/kg
ED50 [32]: < 1 mg/kg

MIC [1]: 16 µg/mL (≈ 31.3 µM)
MIC [2]: 4 µg/mL (≈ 7.84 µM)
MIC [3]: 0.12 µg/mL (≈ 0.235 µM)
MIC [4]: 16 µg/mL (≈ 31.3 µM)
MIC [5]: 0.12 µg/mL (≈ 0.235 µM)
MIC [6]: ≤ 0.06 µg/mL
MIC [7]: 1 µg/mL (≈ 1.96 µM)
MIC [8]: 0.12 µg/mL (≈ 0.235 µM)
MIC [9]: ≤ 0.06 µg/mL
MIC [34]: 2 µg/mL (≈ 3.92 µM)
MIC [10]: 8 µg/mL (≈ 15.7 µM)
MIC [11]: ≤ 0.06 µg/mL
MIC [12]: ≤ 0.06 µg/mL
MIC [13]: 32 µg/mL (≈ 62.7 µM)
MIC [14]: ≤ 0.06 µg/mL
MIC [15]: 2 µg/mL (≈ 3.92 µM)
MIC [16]: 0.12 µg/mL (≈ 0.235 µM)
MIC [17]: 0.5 µg/mL (≈ 0.979 µM)
MIC [18]: 8 µg/mL (≈ 15.7 µM)
MIC [19]: 0.5 µg/mL (≈ 0.979 µM)
MIC [20]: ≤ 0.06 µg/mL
MIC [21]: ≤ 0.06 µg/mL
MIC [22]: 0.5 µg/mL (≈ 0.979 µM)
MIC [23]: > 32 µg/mL
MIC [24]: 0.5 to 1 µg/mL (≈ 0.979 to 1.96 µM)
MIC50 [24]: 0.5 µg/mL (≈ 0.979 µM)
MIC90 [24]: 1 µg/mL (≈ 1.96 µM)
MIC ([25]; medium IsoB + 20% serum): 0.12 to 0.5 µg/mL
MIC50 ([25]; medium IsoB + 20% serum): 0.5 µg/mL
MIC [27]: 0.5 to 2 µg/mL (≈ 0.979 to 3.92 µM)
MIC50 [27]: 1 µg/mL (≈ 1.96 µM)
MIC90 [27]: 2 µg/mL (≈ 3.92 µM)
MIC [28]: 8 to 16 µg/mL (≈ 15.7 to 31.3 µM)
MIC50 [28]: 8 µg/mL (≈ 15.7 µM)
MIC90 [28]: 8 µg/mL (≈ 15.7 µM)
MIC [29]: 1 to 16 µg/mL (≈ 1.96 to 31.3 µM)
MIC50 [29]: 2 µg/mL (≈ 3.92 µM)
SMILES: Nc1nc(/C(=N/O)C(=O)N[C@@H]2C(=O)N3C(C(=O)O)=C(/C=C4\CCN(CCF)C4=O)CS[C@H]23)cs1 [F, [6R-[3(E),6α,7β(Z)]]-7-[[(2-Amino-4-thiazolyl)(hydroxyimino)-acetyl]amino] -3-[[1-(2-fluoroethyl)-2-oxo-3-pyrrolidinylidene]methyl] -8-oxo-5-this-1-azabicyclo[4.2.0]-oct-2-ene-2-carboxylic acid]
ED50 [31, 36]: < 0.1 mg/kg
ED50 [32]: < 1 mg/kg
